Reference: US6559166B1, “Phenylsulphonyl derivatives as 5-HT receptor ligands” (Merck Sharp & Dohme Ltd., priority 1999, dated 2003)

Legend:
[1] = molecular target: human dopamine D2 receptor (Homo sapiens, UniProt P14416); details: cited from earlier work
Sequence of human dopamine D2 receptor (P14416 whole entry): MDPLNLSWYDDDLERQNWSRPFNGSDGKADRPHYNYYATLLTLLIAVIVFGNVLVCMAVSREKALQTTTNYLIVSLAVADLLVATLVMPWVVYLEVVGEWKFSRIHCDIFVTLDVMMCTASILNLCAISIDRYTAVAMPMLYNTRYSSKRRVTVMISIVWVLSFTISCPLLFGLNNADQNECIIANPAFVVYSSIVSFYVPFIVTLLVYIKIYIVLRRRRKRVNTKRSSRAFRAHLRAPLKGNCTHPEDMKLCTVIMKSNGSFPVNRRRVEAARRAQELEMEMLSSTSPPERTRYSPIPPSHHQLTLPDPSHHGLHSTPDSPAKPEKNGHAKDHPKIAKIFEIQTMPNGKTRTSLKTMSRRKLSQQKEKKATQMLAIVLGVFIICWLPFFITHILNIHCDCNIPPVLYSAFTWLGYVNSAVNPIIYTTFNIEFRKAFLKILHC

melting point [°C] | Compound | activity at the human dopamine D2 receptor [1]
168 to 169 | O=S(=O)(c1ccc(Cn2cnnn2)cc1)C1CCN(CCc2ccc(F)cc2F)CC1 [Example 12, 1-[2-(2,4-Difluorophenyl)ethyl]-4-[4-(tetrazol-1-ylmethyl)phenylsulphonyl]piperidine] | –
– | COc1cccc(C(O)C2CCN(CCc3ccc(F)cc3)CC2)c1OC (stereo not drawn) [MDL-100,907, (+)-α-(2,3-dimethoxyphenyl)-1-[2-(4-fluorophenyl)ethyl]-4-piperidinemethanol] | essentially devoid of activity
